Source: patent publication US5001121A, “Cephalosporin compounds and pharmaceutical compositions thereof” (Mochida Pharmaceutical Co., Ltd., priority 1985, dated 1991)
In brackets after ≈: the same amount, converted by molar mass. Read-outs that look alike come from different tables or passages of the source.

Assays:
Escherichia coli 111 = assay: Protection ability against systemic infection; type: in vivo, ICR mice; conditions: Escherichia coli, 111, in Mus musculus, iv, 168 h, i.p. infection, i.v. compound 1 hour later, survival at 1 week
Method: (§1) Protection ability against systemic infection was determined as follows. An aqueous suspension of test bacteria was intraperitoneally injected into 10 four week old ICR mice. One hour after the infection, test compounds were intravenously administered. The number of surviving mice was counted 1 week after injection to determine the dose at which 50% of the test animals were alive (ED50 :mg/kg).

[1] = system: Staphylococcus aureus 242 (methicillin-resistant strain); assay: Protection ability against systemic infection; type: in vivo, ICR mice; conditions: in Mus musculus, iv, 168 h, i.p. infection, i.v. compound 1 hour later, survival at 1 week
Method: as §1

Serratia marcescens 274 = assay: Protection ability against systemic infection; type: in vivo, ICR mice; conditions: iv, 168 h, i.p. infection, i.v. compound 1 hour later, survival at 1 week
Method: as §1

[2] = system: Pseudomonas aeruginosa IFO3445; assay: Protection ability against systemic infection; type: in vivo, ICR mice; conditions: iv, 168 h, i.p. infection, i.v. compound 1 hour later, survival at 1 week
Method: as §1

LD50, Probit method = conditions: in vivo, iv
Method: Next, LD50 of representative examples of the compounds of the present invention is shown in Table 3 wherein LD50 was determined in accordance with the Probit method.

[3] = system: Staphylococcus aureus Smith; assay: Antibacterial activity in vitro, agar plate dilution method (MIC); type: cell-based; conditions: Mueller Hinton agar, 10^6 cells/ml, 37° C., 20 hours
Method: (§2) Antibacterial activity in vitro was determined in accordance with the agar plate dilution method. A platinum loop each of test bacteria (10^6 cells/ml), cultured in Mueller Hinton broth, was inoculated on Mueller Hinton agar plates which contained test compounds at various concentrations. After cultivating at 37° C. for 20 hours, the minimum inhibitory concentration (MIC μg/ml) was determined.

[4] = system: Klebsiella pneumoniae IFO3317; assay: as above; type: cell-based; conditions: Mueller Hinton agar, 10^6 cells/ml, 37° C., 20 hours
Method: as §2

Escherichia coli 67 = assay: as above; type: cell-based; conditions: Mueller Hinton agar, 10^6 cells/ml, 37° C., 20 hours
Method: as §2

[5] = system: Pseudomonas aeruginosa IFO3445; assay: as above; type: cell-based; conditions: Mueller Hinton agar, 10^6 cells/ml, 37° C., 20 hours
Method: as §2

[6] = system: Serratia marcescens IFO3759; assay: as above; type: cell-based; conditions: Mueller Hinton agar, 10^6 cells/ml, 37° C., 20 hours
Method: as §2

[7] = system: Bacteroides fragilis 5524; assay: as above; type: cell-based; conditions: Mueller Hinton agar, 10^6 cells/ml, 37° C., 20 hours
Method: as §2

[8] = Serratia marcescens, 274, in Mus musculus, Table 2-a
[9] = in Mus musculus, Table 2-b, read-out: ED50
[10] = in Mus musculus, Table 2-a, read-out: ED50

| SMILES | ED50 (Escherichia coli 111; Table 2-a, read-out: ED50) | ED50 (Serratia marcescens 274; [8]) | LD50 (LD50, Probit method) | MIC [3] | MIC [4] | MIC (Escherichia coli 67) | MIC [5] | MIC [6] | ED50 ([1]; Table 2-a, read-out: ED50) | ED50 [2, 10] | other results |
| --- | --- | --- | --- | --- | --- | --- | --- | --- | --- | --- | --- |
| CC(C)(O/N=C(\C(=O)N[C@@H]1C(=O)N2C(C(=O)[O-])=C(C[n+]3ccccc3)CS[C@H]12)c1csc(N)n1)C(=O)O [CAZ, Ceftazidime, reference compound] | 6.55 mg/kg | 4.23 mg/kg | – | – | – | – | – | – | – | – | ED50 (Escherichia coli 111; Table 2-b): 3.91 mg/kg; ED50 ([1]; Table 2-a): > 100 mg/kg; ED50 ([1]; Table 2-b): > 2100 mg/kg; ED50 (Serratia marcescens 274; Serratia marcescens, 274, in Mus musculus, Table 2-b): 6.41 mg/kg; ED50 ([2]; Pseudomonas aeruginosa, IFO3445, in Mus musculus, Table 2-a): 229 mg/kg; ED50 ([2]; Pseudomonas aeruginosa, IFO3445, in Mus musculus, Table 2-b): 230 mg/kg |
| Cc1cc(SCC2=C(C(=O)O)N3C(=O)[C@@H](NC(=O)/C(=N\O[C@H](C(=O)O)c4ccc(O)c(O)c4)c4csc(N)n4)[C@H]3SC2)n2nc(C(=O)O)nc2n1 [Compound 9, (6R,7R)-7-[2-(2-amino-4-thiazolyl)-2-[Z-[(S)-carboxy(3,4-dihydroxyphenyl)-methyl]oxyimino]acetamido]-3-[(2-carboxy-5-methyl-s-triazolo [1,5-a]pyrimidin-7-yl)thiomethyl]-8-oxo-5-thia-1-azabicyclo[4.2.0]oct-2-ene-2-carboxylic acid] | – | – | > 1000 mg/kg | 0.78 µg/mL (≈ 1.03 µM) | < 0.05 µg/mL | 0.1 µg/mL (≈ 0.132 µM) | 1.56 µg/mL (≈ 2.06 µM) | 0.05 µg/mL (≈ 0.066 µM) | – | – | ED50 (Escherichia coli 111; Table 2-b, read-out: ED50): 1.73 mg/kg; ED50 ([1]; Table 2-b, read-out: ED50): 3.34 mg/kg; ED50 (Serratia marcescens 274; [9]): 0.47 mg/kg; ED50 [2, 9]: 95 mg/kg; MIC [7]: 6.25 µg/mL (≈ 8.25 µM) |
| Cc1cc(SCC2=C(C(=O)O)N3C(=O)[C@@H](NC(=O)/C(=N\OC(=O)c4cc(O)c(O)cc4C)c4csc(N)n4)[C@H]3SC2)n2nc(C(=O)O)nc2n1 [Compound 3] | – | 1.73 mg/kg | – | – | < 0.05 µg/mL | < 0.05 µg/mL | 0.2 µg/mL (≈ 0.27 µM) | < 0.05 µg/mL | 1.79 mg/kg | 407 mg/kg | – |
| CC(=O)Oc1cc(C)c(C(=O)O/N=C(\C(=O)N[C@@H]2C(=O)N3C(C(=O)O)=C(CSc4cc(C)nc5nc(C(=O)O)nn45)CS[C@H]23)c2csc(N)n2)cc1OC(C)=O [Compound 2, (6R,7R)-7-[2-(2-amino-4-thiazolyl)-2-[Z-(4,5-diacetoxy-2-methylbenzoyl)oxyimino]acetamido]-3-[(2-carboxy-5-methyl-s-triazolo [1,5-a]pyrimidin-7-yl)thiomethyl]-8-oxo-5-thia-1-azabicyclo[4.2.0]oct-2-ene-2-carboxylic acid] | 2.28 mg/kg | – | > 1000 mg/kg | 0.78 µg/mL (≈ 0.945 µM) | < 0.05 µg/mL | < 0.05 µg/mL | 0.2 µg/mL (≈ 0.242 µM) | < 0.05 µg/mL | 7.9 mg/kg | 212 mg/kg | ED50 (Serratia marcescens 274; [10]): 3.08 mg/kg |
